Type in all cases: cell-based
For one experiment, the system named is Candida albicans 10231. Description: Antifungal microdilution, C. albicans ATCC 10231. Conditions: microdilution CLSI M27-A3, 48 h, 37 °C. On the procedure: (§1) In accordance with CLSI guidelines, compounds 3a–h were tested against a variety of fungal strains (Candida albicans 10231, Candida albicans 90028, Candida glabrata 15126, and Candida parapsilosis 22019) belonging to the ATCC collection. Amphotericin B was utilized as a reference drug. A similar trend of results, or even better than that obtained against bacteria, was assessed against fungal strains. […] Also, in this case, compound 3h emerged as the best of the series, with MICs of 16 μg/mL against Candida glabrata and Candida parapsilosis strains and 32 μg/mL against Candida albicans strains.
(§2) A microdilution technique described by the Clinical and Laboratory Standards Institute (CLSI, M27-A3) was used to assess the antifungal activity. The following fungal strains, belonging to the ATCC collection and available as freeze-dried discs, were used: C. albicans ATCC 10231, C. albicans ATCC 90028, C. glabrata ATCC 15126, and C. parapsilosis ATCC 22019. Stock solutions were prepared and preserved with purity as previously described for the antibacterial studies. Each yeast strain’s pre-cultures were made in Sabouraud broth (SAB) and allowed to grow until they stopped at 37 °C. By using a spectrophotometric technique (530 nm, range 0.12–0.15), the turbidity of the yeast stock suspension was calibrated to 0.5 McFarland Standard. Next, the standardized suspension was diluted first at 1:50 with SAB and then at 1:20 in the same medium to have […]. A total of 100 µL of inoculum was seeded into each well. As a control for growth, several wells containing only inoculated broth were prepared. The plates were incubated for 48 h at 37 °C, and the MIC values were calculated as the final well with no fungal growth. […] MIC values were observed based on the absence of fungal growth in the final well. The MICs were calculated by conducting the antifungal test three times in duplicate. As a control, amphotericin B was used.

The test system of experiment [1] is Klebsiella pneumoniae 13883. Description: Broth microdilution, K. pneumoniae ATCC 13883. Particulars: 24 h, 37 °C, read-out: MIC K.p. 13883. An excerpt: (§3) Compounds 3a–h were examined in accordance with the Clinical Laboratory Standards Institute (CLSI) recommendations, by means of the broth microdilution method, against gram-positive bacteria (Staphylococcus aureus 25923, Staphylococcus aureus 29213, Staphylococcus aureus 43300, Enterococcus faecalis 29212) and gram-negative bacteria (Escherichia coli 25922, Klebsiella pneumoniae 13883, Pseudomonas aeruginosa 27853) belonging to the ATCC collection, using levofloxacin as a reference drug. Table 3 lists the results, expressed as MIC (µg/mL). […] The lack of activity observed for compound 3d could be conceivably due to its poor solubility in the culture medium containing the inoculum.
(§4) Following the recommendations of the CLSI (Clinical and Laboratory Standards Institute, 2012), the broth microdilution method was used to determine the in vitro minimum inhibitory concentrations (MICs, µg/mL).. The concentration of the investigated compounds was set to its highest value to create stock solutions. Then, the stock solutions were diluted 1:10 with Cation-Adjusted Mueller Hinton Broth (Oxoid, Milan, Italy). After that, a series of concentrations from 512 µg/mL to […] were obtained in the wells by performing two-fold serial dilutions in the appropriate test medium. The diluent used to create the stock solution was 100% DMSO. We used the following bacterial strains from the ATCC collection that were available as freeze-dried discs: gram-positive strains such as S. aureus ATCC 25923, 29213, and 43300, and E. faecalis ATCC 29212, and gram-negative ones such as E. coli ATCC 25922, K. pneuomoniae ATCC 13883, and P. aeruginosa ATCC 27853. To preserve the purity of cultures and to allow their reproducibility, cryovials of all microbial strains were set up in the medium and stored at −80 °C. Mueller Hinton Broth (MHB) was used to prepare pre-cultures of each bacterial strain, which were then incubated for 3–5 h at 37 °C. In accordance with CLSI procedure M7-A9, the turbidity of the bacterial cell suspension was calibrated to 0.5 McFarland Standard using a spectrophotometric approach (OD625 nm 0.08–0.10). The standardized suspension was then further diluted (1:100) with MHB to reach 1–2 × 10^6 CFU/mL. A 200 µL aliquot of the final inoculum was inserted into each well. As a control for growth, several wells containing only inoculated broth were prepared. The plates were incubated at 37 °C for 24 h, and the MIC values were calculated as the lowest concentration of compounds at which there was no optically detectable bacteria growth. Each experiment was carried out in duplicate and repeated twice to determine the MICs. Levofloxacin served as the study’s standard reference antibiotic. Additionally, the antibacterial activity of DMSO alone (used as a diluent for the investigated compounds) was examined; therefore, volumes of this solvent with a concentration of less than 5% were utilized throughout the experimentation.
Background: Broth dilution looks for growth in wells or tubes with falling amounts of substance.

For experiment [2], the system named is Staphylococcus aureus 43300. Description: Broth microdilution, S. aureus ATCC 43300. Particulars: 24 h, 37 °C, methicillin-resistant.
From the text: as §3, §4

For the next experiment, the system named is Escherichia coli 25922. Briefly: Broth microdilution, E. coli ATCC 25922. Conditions: 24 h, 37 °C.
From the text: as §3, §4

A further experiment concerns Candida albicans 90028. Briefly: Antifungal microdilution, C. albicans ATCC 90028. Conditions: microdilution CLSI M27-A3, 48 h, 37 °C. As for the experimental part: as §1, §2

Values after ≈ are worked out from the molar mass of the structure shown. Some results are limits rather than exact numbers.

For `O=C1c2ccccc2C(=O)N1c1nc2ccc(C(F)(F)F)cc2s1` [3c, 2-[6-Trifluoromethyl-1,3-benzothiazol-2-yl]-1H-isoindole-1,3(2H)-dione], the MIC (as a rule, the least concentration at which growth counts as inhibited) was 64 µg/mL (≈ 184 µM) with Candida albicans 10231; 128 µg/mL (≈ 367 µM) in experiment [1]; 64 µg/mL (≈ 184 µM) in experiment [2]; 128 µg/mL (≈ 367 µM) against Escherichia coli 25922; 64 µg/mL (≈ 184 µM) in the experiment with Candida albicans 90028.
For `Cc1ccc2nc(N3C(=O)c4ccccc4C3=O)sc2c1` [3d, 2-[6-Methyl-1,3-benzothiazol-2-yl]-1H-isoindole-1,3(2H)-dione], the MIC (in the experiment on Candida albicans 10231; in experiment [1]; in experiment [2]; with Escherichia coli 25922; with Candida albicans 90028) was greater than 512 µg/mL throughout.
For `COc1ccc2nc(N3C(=O)c4ccccc4C3=O)sc2c1` [3e, 2-[6-Methoxy-1,3-benzothiazol-2-yl]-1H-isoindole-1,3(2H)-dione], the MIC was 64 µg/mL (≈ 206 µM) against Candida albicans 10231; 64 µg/mL (≈ 206 µM) in experiment [1]; 32 µg/mL (≈ 103 µM) in experiment [2]; 64 µg/mL (≈ 206 µM) with Escherichia coli 25922; 64 µg/mL (≈ 206 µM) against Candida albicans 90028.
Regarding `O=C1c2ccccc2C(=O)N1c1nc2ccccc2s1` [3a, 2-(1,3-benzothiazol-2-yl)-1H-isoindole-1,3(2H)-dione], the MIC against Candida albicans 10231 was determined as 64 µg/mL (≈ 228 µM); in experiment [1], 128 µg/mL (≈ 457 µM); in experiment [2] it was 64 µg/mL (≈ 228 µM); against Escherichia coli 25922 it was 64 µg/mL (≈ 228 µM); in the experiment with Candida albicans 90028 it was 64 µg/mL (≈ 228 µM).
With `O=C1c2ccccc2C(=O)N1c1nc2ccc(Oc3ccccc3)cc2s1` [3h, 2-[6-Phenoxy-1,3-benzothiazol-2-yl]-1H-isoindole-1,3(2H)-dione], the MIC (against Candida albicans 10231; in experiment [1]; in experiment [2]; in the experiment on Escherichia coli 25922; in the experiment with Candida albicans 90028) was 32 µg/mL (≈ 85.9 µM) in each case.
For the compound `O=C1c2ccccc2C(=O)N1c1nc2ccc(F)cc2s1` [3b, 2-(6-Fluoro-1,3-benzothiazol-2-yl)-1H-isoindole-1,3(2H)-dione], the MIC came out at 64 µg/mL (≈ 215 µM) against Candida albicans 10231; 128 µg/mL (≈ 429 µM) in experiment [1]; 64 µg/mL (≈ 215 µM) in experiment [2]; 64 µg/mL (≈ 215 µM) against Escherichia coli 25922; 64 µg/mL (≈ 215 µM) in the experiment with Candida albicans 90028.
Regarding `COc1cc2nc(N3C(=O)c4ccccc4C3=O)sc2cc1OC` [3f, 2-[5,6-Dimethoxy-1,3-benzothiazol-2-yl]-1H-isoindole-1,3(2H)-dione], the minimum inhibitory concentration (MIC) worked out at 32 µg/mL (≈ 94 µM) in the experiment with Candida albicans 10231; 64 µg/mL (≈ 188 µM) in experiment [1]; 32 µg/mL (≈ 94 µM) in experiment [2]; 32 µg/mL (≈ 94 µM) in the experiment with Escherichia coli 25922; 64 µg/mL (≈ 188 µM) against Candida albicans 90028.
For `O=C1c2ccccc2C(=O)N1c1nc2ccc(O)cc2s1` [3g, 2-[6-Hydroxy-1,3-benzothiazol-2-yl]-1H-isoindole-1,3(2H)-dione], the MIC was 32 µg/mL (≈ 108 µM) with Candida albicans 10231; 64 µg/mL (≈ 216 µM) in experiment [1]; 32 µg/mL (≈ 108 µM) in experiment [2]; 64 µg/mL (≈ 216 µM) against Escherichia coli 25922; 64 µg/mL (≈ 216 µM) in the experiment with Candida albicans 90028.

The record behind these values is paper PMC10740580, “Benzothiazole-Phthalimide Hybrids as Anti-Breast Cancer and Antimicrobial Agents” (Antibiotics, 2023).
